Measurements as given in the supplement of paper PMC10307832.

What was measured:
Experiment in all cases: relative viability (nuclei count vs DMSO), 5 days (fraction); higher = more cells survive
[1] = compound: C1=CC=C(C(=C1)C2=CC=C(C=C2)C3=CSC4=C3C(=C(C(=O)N4)C#N)O)O
How it was run: (§1)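 Viability here means nuclei in treated wells divided by nuclei in vehicle wells, reported as the median across plates. Only plates with control CV below 25% and at least one doubling passed. Lung cancer cell lines in 1536-well plates were exposed to five √10-spaced library-drug doses for 5 days and counted from 4× Hoechst images in MetaXpress.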

TGX 221 = compound: CC1=CN2C(=O)C=C(N=C2C(=C1)C(C)NC3=CC=CC=C3)N4CCOCC4 [TGX 221]
How it was run: as §1

Ricolinostat = compound: O=C(CCCCCCNC(=O)c1cnc(N(c2ccccc2)c2ccccc2)nc1)NO [Ricolinostat]
How it was run: as §1

TGX 221 + Crizotinib = compound: CC1=CN2C(=O)C=C(N=C2C(=C1)C(C)NC3=CC=CC=C3)N4CCOCC4 [TGX 221] + C[C@@H](Oc1cc(-c2cnn(C3CCNCC3)c2)cnc1N)c1c(Cl)ccc(F)c1Cl [Crizotinib] (partner 1 µM)
How it was run: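 Five library-drug doses in √10 steps were combined with a fixed anchor-drug dose, or a single drug was given alone, by pin tool to lung cancer cell lines in 1536-well plates the day after seeding. Nuclei were stained and counted after 5 days. Relative viability is the nuclei count in treated wells over that in vehicle wells, taken as the median of duplicate plates.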

For EBC-1, which relative viability ([1]; 0.08 µM) is on record?
Its relative viability is 1.04.

And the relative viability ([1]; 0.253 µM)?
The relative viability was 1.14.

What about the relative viability ([1]; 0.8 µM) of the same cell line?
Its relative viability is 0.975.

What about the relative viability ([1]; 2.53 µM) of the same cell line?
Its relative viability is 1.15.

And the relative viability ([1]; 8 µM)?
Its relative viability is 0.768.

And the relative viability (TGX 221; 0.08 µM)?
Its relative viability is 0.952.

And the relative viability (TGX 221; 0.253 µM)?
Its relative viability is 1.03.

And the relative viability (TGX 221; 0.8 µM)?
Its relative viability is 0.976.

And the relative viability (TGX 221; 2.53 µM)?
Its relative viability is 0.891.

What about the relative viability (TGX 221; 8 µM) of the same cell line?
The relative viability was 0.736.

What about the relative viability (Ricolinostat; 0.08 µM) of the same cell line?
Its relative viability is 0.808.

And the relative viability (Ricolinostat; 0.253 µM)?
The relative viability was 0.886.

And the relative viability (Ricolinostat; 0.8 µM)?
The relative viability was 0.895.

What about the relative viability (Ricolinostat; 2.53 µM) of the same cell line?
Its relative viability is 0.449.

And the relative viability (TGX 221 + Crizotinib; first compound 0.08 µM)?
Its relative viability is 0.203.

What about the relative viability (TGX 221 + Crizotinib; first compound 0.253 µM) of the same cell line?
Its relative viability is 0.183.

What about the relative viability (TGX 221 + Crizotinib; first compound 0.8 µM) of the same cell line?
Its relative viability is 0.211.

What about the relative viability (TGX 221 + Crizotinib; first compound 2.53 µM) of the same cell line?
Its relative viability is 0.178.

What about the relative viability (TGX 221 + Crizotinib; first compound 8 µM) of the same cell line?
The relative viability was 0.183.

Which results are given for NCI-H1651?
relative viability ([1]; 0.08 µM): 0.997; relative viability ([1]; 0.253 µM): 0.973; relative viability ([1]; 0.8 µM): 1.07; relative viability ([1]; 2.53 µM): 1; relative viability ([1]; 8 µM): 0.821; relative viability (TGX 221; 0.08 µM): 0.923; relative viability (TGX 221; 0.253 µM): 0.891; relative viability (TGX 221; 0.8 µM): 0.953; relative viability (TGX 221; 2.53 µM): 0.956; relative viability (TGX 221; 8 µM): 0.879; relative viability (Ricolinostat; 0.08 µM): 0.913; relative viability (Ricolinostat; 0.253 µM): 0.936; relative viability (Ricolinostat; 0.8 µM): 0.971; relative viability (Ricolinostat; 2.53 µM): 0.966; relative viability (TGX 221 + Crizotinib; first compound 0.253 µM): 0.834; relative viability (TGX 221 + Crizotinib; first compound 0.8 µM): 0.865; relative viability (TGX 221 + Crizotinib; first compound 2.53 µM): 0.839; relative viability (TGX 221 + Crizotinib; first compound 8 µM): 0.753

Which results are given for HCC-827?
relative viability ([1]; 0.08 µM): 1.03; relative viability ([1]; 0.253 µM): 1.05; relative viability ([1]; 0.8 µM): 1.08; relative viability ([1]; 2.53 µM): 1.07; relative viability ([1]; 8 µM): 1.11; relative viability (TGX 221; 0.08 µM): 0.982; relative viability (TGX 221; 0.253 µM): 1.03; relative viability (TGX 221; 0.8 µM): 1.07; relative viability (TGX 221; 2.53 µM): 1.04; relative viability (TGX 221; 8 µM): 0.983; relative viability (Ricolinostat; 0.08 µM): 0.946; relative viability (Ricolinostat; 0.253 µM): 1.02; relative viability (Ricolinostat; 0.8 µM): 1.01; relative viability (Ricolinostat; 2.53 µM): 0.991; relative viability (TGX 221 + Crizotinib; first compound 0.08 µM): 0.884; relative viability (TGX 221 + Crizotinib; first compound 0.253 µM): 0.937; relative viability (TGX 221 + Crizotinib; first compound 0.8 µM): 0.985; relative viability (TGX 221 + Crizotinib; first compound 2.53 µM): 0.859; relative viability (TGX 221 + Crizotinib; first compound 8 µM): 0.892

Which relative viability ([1]; 0.08 µM) does the source give for NCI-H2085 here?
Its relative viability is 0.905.

And the relative viability ([1]; 0.253 µM)?
The relative viability was 1.13.

And the relative viability ([1]; 0.8 µM)?
The relative viability was 0.982.

And the relative viability ([1]; 2.53 µM)?
Its relative viability is 0.964.

And the relative viability ([1]; 8 µM)?
The relative viability was 0.917.

And the relative viability (TGX 221; 0.08 µM)?
The relative viability was 1.01.

What about the relative viability (TGX 221; 0.253 µM) of the same cell line?
The relative viability was 0.933.

What about the relative viability (TGX 221; 0.8 µM) of the same cell line?
The relative viability was 0.863.

What about the relative viability (TGX 221; 2.53 µM) of the same cell line?
The relative viability was 0.644.

And the relative viability (TGX 221; 8 µM)?
The relative viability was 0.585.

What about the relative viability (Ricolinostat; 0.253 µM) of the same cell line?
Its relative viability is 0.986.

And the relative viability (Ricolinostat; 0.8 µM)?
The relative viability was 0.972.

What about the relative viability (Ricolinostat; 2.53 µM) of the same cell line?
Its relative viability is 0.88.

And the relative viability (TGX 221 + Crizotinib; first compound 0.08 µM)?
The relative viability was 0.804.

What about the relative viability (TGX 221 + Crizotinib; first compound 0.253 µM) of the same cell line?
Its relative viability is 0.878.

And the relative viability (TGX 221 + Crizotinib; first compound 0.8 µM)?
Its relative viability is 0.915.

And the relative viability (TGX 221 + Crizotinib; first compound 2.53 µM)?
The relative viability was 0.806.

And the relative viability (TGX 221 + Crizotinib; first compound 8 µM)?
Its relative viability is 0.505.

Which relative viability ([1]; 0.08 µM) does the source give for EPLC-272H here?
Its relative viability is 0.688.

And the relative viability ([1]; 0.253 µM)?
The relative viability was 0.773.

What about the relative viability ([1]; 0.8 µM) of the same cell line?
The relative viability was 0.926.

What about the relative viability ([1]; 2.53 µM) of the same cell line?
Its relative viability is 1.

What about the relative viability ([1]; 8 µM) of the same cell line?
The relative viability was 0.788.

What about the relative viability (TGX 221; 0.08 µM) of the same cell line?
Its relative viability is 0.911.

And the relative viability (TGX 221; 0.253 µM)?
The relative viability was 0.837.

And the relative viability (TGX 221; 0.8 µM)?
The relative viability was 1.02.

And the relative viability (TGX 221; 2.53 µM)?
The relative viability was 0.727.

What about the relative viability (TGX 221; 8 µM) of the same cell line?
The relative viability was 0.978.

What about the relative viability (Ricolinostat; 0.08 µM) of the same cell line?
Its relative viability is 0.673.

What about the relative viability (Ricolinostat; 0.253 µM) of the same cell line?
Its relative viability is 0.942.

What about the relative viability (Ricolinostat; 0.8 µM) of the same cell line?
The relative viability was 0.719.

What about the relative viability (Ricolinostat; 2.53 µM) of the same cell line?
The relative viability was 0.577.

What about the relative viability (TGX 221 + Crizotinib; first compound 0.08 µM) of the same cell line?
The relative viability was 0.827.

What about the relative viability (TGX 221 + Crizotinib; first compound 0.253 µM) of the same cell line?
The relative viability was 0.57.

What about the relative viability (TGX 221 + Crizotinib; first compound 0.8 µM) of the same cell line?
Its relative viability is 0.833.

What about the relative viability (TGX 221 + Crizotinib; first compound 8 µM) of the same cell line?
Its relative viability is 0.72.
